In PubChem BioAssay (NCI):
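Five compound concentrations were applied to cells in 96-well plates for 48 hours; endpoints were derived by simple linear interpolation of the resulting dose-response curve. TGI: concentration producing complete growth inhibition.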

Tests used:
Experiment in all cases: NCI tumour cell line growth inhibition, 48 h
[1] = tested on: NCI-H522 lung
[2] = tested on: ACHN renal
[3] = tested on: NCI-H23 lung
[4] = tested on: SF-295 CNS
[5] = tested on: UO-31 renal
[6] = tested on: MOLT-4 leukemia
[7] = tested on: OVCAR-3 ovarian
[8] = tested on: TK-10 renal
[9] = tested on: HOP-62 NSCLC
[10] = tested on: SK-OV-3 ovarian

| SMILES | TGI [1] [µM] | TGI [2] [µM] | TGI [3] [µM] | TGI [4] [µM] | TGI [5] [µM] | TGI [6] [µM] | TGI [7] [µM] | TGI [8] [µM] | TGI [9] [µM] | TGI [10] [µM] |
| --- | --- | --- | --- | --- | --- | --- | --- | --- | --- | --- |
| Oc1ccc(-c2nc3cc(F)ccc3s2)cc1 | 30.7 | 40.7 | 83.8 | 48.6 | 49.9 | > 100 | 41.5 | 56 | 63 | 50.7 |
| Cc1c2cc[n+](C)cc2c(C)c2c1oc1ccccc12 | 8.17 | > 100 | 11.2 | 12.2 | > 100 | 28.7 | 16.7 | 98.8 | 11.2 | 57.8 |
| c1c2c(cc3c1OCO3)-c1cc3ccc4c(c3c[n+]1CC2)OCO4 | 1.8 | > 12.5 | > 12.5 | 3.52 | > 12.5 | > 12.5 | > 3.26 | > 12.5 | > 12.5 | > 12.5 |
| Cc1[nH]n(-c2ccccc2)c(=O)c1C(N(CCc1ccccc1)C1=NCC(C)S1)(C(F)(F)F)C(F)(F)F (stereo unspecified) | 28.2 | 79.3 | 20 | 84.2 | 25.3 | 97.8 | > 100 | > 100 | 87.6 | 95.1 |
| CC1CC(Br)C(=O)O1 (stereo unspecified) | > 100 | > 100 | > 100 | > 100 | > 100 | > 100 | > 100 | > 100 | > 100 | > 100 |
| O=C1OC2(OC2c2ccc(Cl)cc2)c2ccccc21 (stereo unspecified) | > 100 | > 100 | – | > 100 | > 100 | > 100 | > 100 | > 100 | 41.6 | > 100 |
| CCO[C@]12CCC[C@H]1[C@@H]1C(=O)c3ccccc3C(=O)C1=C(C)O2 | > 100 | > 100 | > 100 | > 100 | > 100 | > 100 | 50.3 | > 100 | > 100 | > 100 |
| CSc1ccc(/C=C2\N=C(c3ccccc3)N(/N=C3\C(=O)Nc4ccccc43)C2=O)cc1 | > 100 | > 100 | > 100 | > 100 | > 100 | > 100 | > 100 | > 100 | > 100 | > 100 |
| COc1ccc2c(c1)/C(=C\c1c(Cl)n(-c3ccccc3)c3ccccc13)C(=O)N2 | – | 45.1 | 38.4 | 25.9 | 18.3 | > 100 | 6.78 | 84.4 | 33.6 | > 100 |
| COc1cc([N+](=O)[O-])ccc1NC(=O)c1cccc([N+](=O)[O-])c1O | 39 | 62 | 96.9 | 81.6 | 56.5 | > 100 | > 100 | – | > 100 | 77.9 |
| Nc1nc(OCC2CCCCC2)c2[nH]cnc2n1 | 60.1 | 38.4 | > 100 | > 75.6 | 38.2 | > 68.8 | 35.7 | 30.5 | 53.9 | 68.5 |
| CC1(C=O)CCC23COC4(CCC5C6(C)CCC(OC7OCC(OC8OC(CO)C(O)C(OC9OC(CO)C(O)C(O)C9O)C8OC8OCC(O)C(O)C8O)C(O)C7OC7OC(CO)C(O)C(O)C7O)C(C)(C)C6CCC5(C)C4(C)CC2O)C3C1 (stereo unspecified) | 3.41 | 2.57 | – | 2.23 | 2.8 | – | 2.79 | 3.33 | 3.6 | 2.57 |
| COC(=O)/C=C1\CCCN1CCc1cc2c(cc1CC#N)OCO2 | > 100 | > 100 | > 100 | > 100 | > 100 | > 100 | 69.1 | > 100 | > 100 | > 100 |
| CCOC(=O)Nc1cc2c(c(N)n1)N=C(c1ccc3ccccc3c1)CN2 | 0.545 | > 83.3 | – | – | > 62.9 | – | 10.7 | > 60.7 | – | 18.9 |
| Cc1ccc(N=NC(C2=NC(=O)CS2)c2nc3ccccc3[nH]2)cc1 (stereo unspecified) | > 100 | > 100 | > 100 | > 100 | > 100 | 76.7 | > 100 | > 100 | 69.3 | > 100 |
| Cc1ccc([N+](=O)[O-])cc1S(=O)(=O)Nc1ccc(C2=NOC(c3ccccc3O)C2)cc1 (stereo unspecified) | 6.4 | > 100 | 98.4 | > 100 | 1.34 | 9.04 | 24.1 | > 100 | > 100 | > 100 |
